Results on 65 compounds are retold here after ChEMBL document CHEMBL1157539, “Thousands of chemical starting points for antimalarial lead identification” (Nature, 2010).

For the assay, the system named is Plasmodium falciparum. Nature of the assay: GSK_TCMDC: Inhibition of Plasmodium falciparum 3D7 in whole erythrocytes, using parasite LDH activity as an index of growth. Conditions: Plasmodium falciparum, 3D7. Type of assay: functional, organism-based.
The compound `CN(C)CCNC(=O)c1csc(Nc2ccc(Cl)c(Cl)c2)n1` showed an XC50 of 225 nM.

Take `COCCCC1C(=O)OC2CCCC21` (stereo not given): the XC50 was determined as 699 nM.

`Cc1ccc(Nc2nccc(N(C)c3ccc4c(c3)nc(NC(=O)Cc3ccc(Cl)c(Cl)c3)n4C)n2)cc1S(N)(=O)=O` registered an XC50 of 1110 nM.

`CCCN(CC1CC1)c1ncc(-c2cccc(CNCCC3CCCN3C)c2)cn1` (stereo not given) gave an XC50 of 749 nM.

As for `Cc1cc(-c2ccc(O)c(CNC3CCCCC3)c2)cnc1N`, the XC50 came to 203 nM.

Compound `CC1(C)N=C(NC(=O)c2cc([N+](=O)[O-])cc([N+](=O)[O-])c2)N=C(N)N1OCc1cccc2ccccc12` came in with an XC50 of 6.84 nM.

The compound `COc1ccc2c(=NN=Cc3ccccc3)cc(C)[nH]c2c1` yielded an XC50 of 846 nM.

Compound `N=C(N)NN=CC(=O)Nc1ccc(Cl)cc1` showed an XC50 of 814 nM.

Compound `OCCN1CCN(Cc2ccc(-c3ccc(-c4nc5cc(F)ccc5[nH]4)cc3)cc2)CC1` had an XC50 of 567 nM.

`COc1ccc2[nH]ccc(=NN=Cc3ccncc3)c2c1` gave an XC50 of 584 nM.

On to `CCOc1cc(C(=O)NCCN(CC)c2cccc(C)c2)ccc1-c1nc2cc(Cl)ccc2[nH]1`, for which the XC50 came out at 809 nM.

`COc1cc2ncnc(Nc3ccc(Br)c(Cl)c3)c2cc1OC` came in with an XC50 of 718 nM.

The compound `COc1ccc2ncc(Cl)c(N3CCC(CCNCc4ccc5c(n4)NC(=O)CS5)CC3)c2c1` yielded an XC50 of 961 nM.

For `Cc1cc(N(C)CCCN(C)C)nc(Nc2ccc(Cl)cc2)n1`, the XC50 came to 1020 nM.

Take `CCOC(=O)c1ccc(NC(=O)NCCCC2CCCN(CCCCCNC(=O)/C=C/c3ccc(Cl)c(Cl)c3)C2)cc1` (stereo not given): the XC50 worked out at 855 nM.

In turn, `COc1ccc(NC(=O)Nc2ccc(C)c(-c3ccc(C(=O)Nc4ccncc4)cc3)c2)cc1` returned an XC50 of 572 nM.

Compound `CC(C)C(NC(=O)c1c(F)cccc1F)C(=O)Nc1ccc(Cc2nc3ccccc3s2)cc1` (stereo not given) yielded an XC50 of 448 nM.

Regarding `CSc1ccc(NC(=O)Nc2cc(C)nc3ccccc23)cc1Br`, the XC50 worked out at 778 nM.

`O=C(Nc1cccc(OC2CCN(Cc3ccc(F)cc3)CC2)c1)c1ccc(C(F)(F)F)cc1` registered an XC50 of 952 nM.

On to `CCN(CC)C(=S)N/N=C1/C(=O)Nc2c(C)cccc21`, for which the XC50 was 863 nM.

For `O=C(NOCCOc1ccccc1)c1ccccc1`, the XC50 was 317 nM.

With `COc1ccc(Cl)cc1NC(=O)C(C)Nc1ccc(-c2ccccc2)cc1` (stereo not given), the XC50 worked out at 556 nM.

The compound `CN(C)CCCNc1ncnc2c1[nH]c1ccc(Br)cc12` yielded an XC50 of 319 nM.

Turning to `CCOc1ccc2c(c1)N(C(=O)C=Cc1ccccc1)C(C)(C)c1ssc(=S)c1-2`, the XC50 was 1150 nM.

With `CCc1ccc(CN2CCC(NC(=O)c3ccc(-c4ccc(N(C)C)cc4)s3)CC2)cc1`, the XC50 was found to be 1210 nM.

Take `CC(Cl)=CCc1c(C)nc2c(ccc3ccccc32)c1O`: the XC50 turned out to be 198 nM.

For `CCOc1cc2ncnc(Nc3ccc(OCc4ccccc4F)c(Cl)c3)c2cc1OCC`, the XC50 came out at 601 nM.

The compound `CC(C)(CNCc1cccc(Oc2ccccc2)c1)c1nc(-c2ccnc(N)n2)c(-c2ccc(Cl)c(O)c2)[nH]1` returned an XC50 of 760 nM.

In the case of `CC(C)(C)c1ccc(CN2CCC(NC(=O)c3ccc(-c4ccccc4F)s3)CC2)cc1`, the XC50 was determined as 1200 nM.

`COc1ccc2c(CNCCCCCCNCc3c(OC)ccc4cc(OC)ccc34)c(OC)ccc2c1` displayed an XC50 of 560 nM.

`CCCCCN1CCC(NC(=O)c2ccc(C(=O)Nc3ccc(C(C)C)cc3)cc2)C1` (stereo not given) had an XC50 of 954 nM.

In turn, `CCN(CCCN1CCCCC1)c1cc(C)nc(Nc2cccc(C(F)(F)F)c2C)n1` yielded an XC50 of 609 nM.

`COc1cc2c(cc1COc1ccccc1)CCN1Cc3cc(OC)c(OC)cc3CC21` (stereo not given) gave an XC50 of 150 nM.

Turning to `O=C(NC1CCN(CC2(c3ccccc3)CCCC2)CC1)c1n[nH]cc1Cl`, the XC50 was 1040 nM.

With `CCN(CC)CCCNc1cc[n+]([O-])c2cc3ccccc3cc12`, the XC50 was 871 nM.

In turn, `COc1ccc2c(c1)OC(C)(C)CC2=NOS(=O)(=O)c1ccc(C)cc1` showed an XC50 of 208 nM.

The compound `CCNCc1ccc(-c2cccc(-c3nc4ccccc4[nH]3)c2)cc1` gave an XC50 of 550 nM.

`CCOc1ccc(-c2nc3cc(-c4nc5cc(N6CCN(C)CC6)ccc5[nH]4)ccc3[nH]2)cc1` yielded an XC50 of 108 nM.

Compound `COc1cccc(Nc2nc(C)cc(NC3CCN(Cc4ccccc4)CC3)n2)c1` yielded an XC50 of 693 nM.

Consider `Cc1ccccc1CNC(=O)Nc1cccc(-c2csc(NC(=N)N)n2)c1`, for which the XC50 amounted to 700 nM.

`Cc1cc(N(C)C)nc(Nc2ccc(NC(=O)c3ccccc3C)cc2)n1` gave an XC50 of 1130 nM.

Regarding `O=C(NCCCCN1CCN(c2cccc3ccccc23)CC1)c1ccc(NC(=O)c2ccc(Cl)cc2)cc1`, the XC50 was 358 nM.

`Cc1cc(N)nc2ccc(CNCCc3ccccc3Br)cc12`: the XC50 is 120 nM.

Consider `O=C(N[C@H]1CCN(Cc2ccc(OCCN3CCNCC3)c3ccccc23)C1)c1ccc(Cl)c(Cl)c1`, for which the XC50 turned out to be 748 nM.

`COc1ccccc1NC(=O)OC(COc1ccc(N)cc1)CN1CC=C(c2ccccc2)CC1` (stereo not given) had an XC50 of 1040 nM.

As for `CCc1c(C(=O)NC2CCC(N3CCC(c4ccccc4OC)CC3)CC2)[nH]c2ccc(OC)cc12` (stereo not given), the XC50 was 1110 nM.

As to `CNc1ccc(CNCc2ccc(-c3ccc(-c4nc5cc(C(F)(F)F)ccc5[nH]4)s3)cc2)cc1`, the XC50 amounted to 177 nM.

Regarding `COc1ccc(/C=C/C(=O)NCCCCCN2CCC(c3c[nH]c4ccccc34)CC2)cc1O`, the XC50 came out at 957 nM.

`CN1CC[C@@H](Oc2cc(Nc3nc(-c4ccc(C#N)cc4)cs3)ccc2Cl)C1` displayed an XC50 of 821 nM.

Consider `COc1cccc(N(CCCN2C(=O)c3cccc4cccc(c34)C2=O)C(=O)c2ccccc2C)c1`, for which the XC50 was determined as 795 nM.

`Fc1ccc2[nH]cc(CCNCc3ccc(-c4cccc(-c5nc6ccccc6[nH]5)c4)cc3)c2c1` showed an XC50 of 174 nM.

`CC(=O)Nc1ccc([N+](=O)[O-])c2c(Br)cccc12` came in with an XC50 of 636 nM.

As to `O=C(COc1ccccc1Cl)N1CCc2cc3nccc(N4CCN5CCC[C@H]5C4)c3cc21`, the XC50 amounted to 744 nM.

Compound `CCOC(C(=O)OCC1CCCN1C(C)C)(c1ccccc1)c1ccccc1` (stereo not given) returned an XC50 of 763 nM.

`O=C(Nc1ccc(-c2nc3ccccc3[nH]2)cc1)c1ccc(S(=O)(=O)N2CCCCCC2)cc1`: the XC50 came to 411 nM.

As to `O=C(Nc1cccc(-c2csc(-c3ccccc3)n2)c1)c1cccs1`, the XC50 stood at 800 nM.

For `COc1ccc2ccccc2c1C=NN=c1cc[nH]c2ccc(F)cc12`, the XC50 came to 1110 nM.

With `O=C(C=Cc1ccc(Cl)c(Cl)c1)NCCCCCN1CCCC(CCCNS(=O)(=O)c2cccc(C(F)(F)F)c2)C1` (stereo not given), the XC50 was found to be 962 nM.

Take `COc1ccc2c(c1)CCCC2C(C)NCC(O)c1cccc(C(F)(F)F)c1` (stereo not given): the XC50 was determined as 345 nM.

The compound `CC[C@H]1CN2CC[C@H]1C[C@H]2[C@H](O)c1cc(N2CCC3CCCCC3C2)nc2ccc(OC)cc12` (stereo not given in full) registered an XC50 of 170 nM.

Consider `CC(=O)Nc1ccc(NC(=O)c2cc(-c3cc(Cl)ccc3O)n[nH]2)cc1`, for which the XC50 came to 176 nM.

`CCCCCCn1c(Sc2ccc(C#N)c([N+](=O)[O-])c2)nnc1-c1cc(OC)cc(OC)c1` showed an XC50 of 771 nM.

`COc1cc(Nc2nccc(-c3c(-c4cccc(NC(=O)c5c(F)cccc5F)c4)nn4ccccc34)n2)cc(OC)c1OC` yielded an XC50 of 77.3 nM.

Turning to `O=[N+]([O-])c1cccc(-c2ccc(C=NNc3cc(N4CCCC4)nc(N4CCCC4)n3)o2)c1`, the XC50 came to 713 nM.

As for `COCCNCc1cccc(-c2ccc(CN(C(=O)Nc3ccccc3)C3CCN(Cc4ccccc4)CC3)cc2)c1`, the XC50 came to 773 nM.
